{"source": "patent US4410525A", "about": "“Alkoxy pyrazole derivatives and compositions” (Establissements Nativelle S.A., priority 1981, dated 1983)", "key": {"rabbit cornea": {"test_system": "rabbit cornea", "test": "Local contact anesthesia on the rabbit cornea", "assay_type": "in vivo", "conditions": "solution at 0.25% or 1% by weight, eyewash instillation", "excerpt": "For example, the derivatives described in Examples 2, 3, 4, 6, 7 and 9 are local anesthetics (100% anesthesia) in a solution at 0.25% or 1% by weight."}, "[1]": {"test_system": "ventricular arrhythmias induced by aconitine in the anesthetized rat", "test": "Antiarrhythmic test with aconitine on the rat", "assay_type": "in vivo", "description": "The derivatives of the invention were used in the test with aconitine on the rat. For this test, the anesthetized rat was intoxicated by an intravenous perfusion of aconitine (solution of aconitine nitrate: 15 mg/l; speed of perfusion: 0.4 ml/min) while its electrocardiogram was recorded permanently. During perfusion at constant speed, the time necessary for the appearance of ventricular arrhythmias, successively ventricular extrasystoles (ESV), ventricular tachycardium (TV) and ventricular fibrillation (FV) was measured.\nThe animals were divided into a control group (untreated) and treated group (different doses). The results are expressed as a percentage of prolonging the time of the appearance of the arrhythmias in the treated groups in relation to the control group. This prolongation of arrhythmia appearance time therefore corresponds to myocardiac protection against the arrhythmic effects of aconitine."}, "[2]": {"test_system": "isolated guinea pig auricle", "test": "Maximum stimulation frequency test on isolated guinea pig auricle", "conditions": "Cavia porcellus; 10 mg/l; read-out: Δ% MFS (decrease of the maximum frequency followed)", "description": "The maximum frequency test carried out studied the maximum stimulation frequency which can cause contraction of an isolated guinea pig auricle placed in a solution containing a derivative of the invention. The measurement was carried out before (control period) and then after introduction of the derivative into the solution."}, "[3]": {"test_system": "anoxic ventricular fibrillation in mice", "test": "Cardiac antifibrillatory activity on the mouse (Lawson test)", "assay_type": "in vivo", "conditions": "ip, intraperitoneal, 10 minutes before chloroform, read-out: ED 50 (protects half the mice against anoxic ventricular fibrillation)", "description": "Cardiac antifibrillatory activity of the derivatives of the invention has been verified on the mouse using the Lawson test, in accordance with the method described by J. W. Lawson, J. Pharmacol. Exp. Therp. 160, 22-31 (1968), and C. Narcisse et al., Ann. Pharm. Fr. 37, 325-330 (1979).\nThe mice (20 per dose) received an intraperitoneal injection of the derivative 10 minutes before being placed in a chloroform saturated atmosphere. As soon as respiratory arrest occurred, the thorax was opened (5 to 10 seconds) and the state of the heart was checked: presence or absence of ventricular fibrillation. The efficacy dose 50 (ED 50) of the derivative being studied is the dose which protects half the mice against anoxic ventricular fibrillation."}, "anesthetized dog": {"test_system": "anesthetized dog", "test": "Hemodynamic effects on the anesthetized dog", "assay_type": "in vivo", "conditions": "i.v.; for (dp/dt)l/p, percentage of variation / Cardiac flow, percentage of variation / Cardiac frequency, percentage of variation / Contraction force of the myocardium, percentage of variation / Systolic arterial pressure, percentage of variation / Systolic volume, percentage of variation: Example 4 series, vs pretreatment; for Cardiac frequency (result in words) / Systolic arterial pressure (result in words) / force of ventricular myocardiac contractions (result in words) / cumulative dose at which a 20% drop of cardiac flow is reached: anesthetized dog", "description": "Cardiovascular tolerance was studied on the isolated guinea pig auricle, on the anesthetized rat and on the anesthetized dog.\nOn the anesthetized dog, the results obtained with respect to hemodynamic tolerance are summarized in Table 2 below which indicates the percentages of variation of the hemodynamic parameters in relation to the pre-treatment control period for the derivatives of Examples 2 and 4.\nThe parameters were recorded by means of:\nCatheters connected to pressure sensors (arterial pressure, left ventricular pressure and its first derivative dp/dt);\nElectromagnetic flowmeter on the aorta (aortic flow);\nStrain gauge placed on the left ventricular myocardium (force of myocardiac contraction).\nThe derivatives were injected intraveneously, one dose approximately every 30 minutes and their effects were measured 20 minutes after the completion of the injection (length of the injection 2 minutes)."}, "[4]": {"test": "Acute toxicity (lethal dose 50) in the mouse", "conditions": "in vivo, oral (P.O.), 5 males and 5 females per dose, read-out: LD 50 P.O.", "excerpt": "The acute toxicity of the deriatives of the invention were studied by oral administration (P.O) to the mouse (10 animals, 5 males and 5 females per dose) and calculation of the lethal dose 50 (LD 50) in accordance with the method of Litchfield and Wilcoxon (J. Pharmacol., 96, 99-113 (1949)). Table 1 gives the LD 50 values of the derivatives of the invention.\nIn certain cases, the LD 50 was also studied after intraperitoneal injection (I.P.) of the derivatives."}, "[5]": {"test_system": "ventricular extrasystoles in the dog", "test": "Harris test on the dog", "assay_type": "in vivo", "conditions": "during the 2 hours following the injection", "description": "By way of example, the number of ventricular extrasystoles per minute decreases by approximately 50% during the 2 hours following the injection of the product, in the case of the derivative described in Example 10. Moreover, the antiarrhythmic effect (myocardiac protection) increases with the size of the dose injected."}, "[6]": {"conditions": "read-out: Prolongation of time of appearance of ventricular extrasystoles (ESV)"}, "[7]": {"conditions": "read-out: Prolongation of time of appearance of ventricular fibrillation (FV)"}, "[8]": {"conditions": "read-out: Prolongation of time of appearance of ventricular tachycardium (TV)"}}, "note": "Read-outs that look alike come from different tables or passages of the source.", "data": [{"smiles": "Cc1c(-c2ccccc2)n[nH]c1OCCN1CCOCC1", "note": "[Example 4, 3-Phenyl-4-methyl-5-morpholinoethoxy-pyrazole]", "values": [{"measurement": "local anesthesia", "setting": "rabbit cornea", "value": 100, "unit": "%"}, {"measurement": "change in vivo at 10 mg/kg", "setting": "[1]; [6]", "value": 7, "unit": "%"}, {"measurement": "change in vivo at 10 mg/kg", "setting": "[1]; [7]", "value": 18, "unit": "%"}, {"measurement": "change in vivo at 10 mg/kg", "setting": "[1]; [8]", "value": 22, "unit": "%"}, {"measurement": "inhibition at 10 µg/mL", "setting": "[2]", "value": 27, "unit": "%"}, {"measurement": "ED50", "setting": "[3]", "value": 46, "unit": "mg/kg"}, {"measurement": "(dp/dt)l/p, percentage of variation", "setting": "anesthetized dog; dose 1 mg/kg", "value": "+10%"}, {"measurement": "Cardiac flow, percentage of variation", "setting": "anesthetized dog; dose 1 mg/kg", "value": 0, "unit": "%"}, {"measurement": "Cardiac frequency, percentage of variation", "setting": "anesthetized dog; dose 1 mg/kg", "value": 0, "unit": "%"}, {"measurement": "Contraction force of the myocardium, percentage of variation", "setting": "anesthetized dog; dose 1 mg/kg", "value": "+5%"}, {"measurement": "Systolic arterial pressure, percentage of variation", "setting": "anesthetized dog; dose 1 mg/kg", "value": 0, "unit": "%"}, {"measurement": "Systolic volume, percentage of variation", "setting": "anesthetized dog; dose 1 mg/kg", "value": 0, "unit": "%"}, {"measurement": "(dp/dt)l/p, percentage of variation", "setting": "anesthetized dog; dose +3 mg/kg", "value": "+2%"}, {"measurement": "Cardiac flow, percentage of variation", "setting": "anesthetized dog; dose +3 mg/kg", "value": 0, "unit": "%"}, {"measurement": "Cardiac frequency, percentage of variation", "setting": "anesthetized dog; dose +3 mg/kg", "value": 0, "unit": "%"}, {"measurement": "Contraction force of the myocardium, percentage of variation", "setting": "anesthetized dog; dose +3 mg/kg", "value": "+10%"}, {"measurement": "Systolic arterial pressure, percentage of variation", "setting": "anesthetized dog; dose +3 mg/kg", "value": 0, "unit": "%"}, {"measurement": "Systolic volume, percentage of variation", "setting": "anesthetized dog; dose +3 mg/kg", "value": 0, "unit": "%"}, {"measurement": "(dp/dt)l/p, percentage of variation", "setting": "anesthetized dog; dose +10 mg/kg", "value": -10, "unit": "%"}, {"measurement": "Cardiac flow, percentage of variation", "setting": "anesthetized dog; dose +10 mg/kg", "value": -23, "unit": "%"}, {"measurement": "Cardiac frequency, percentage of variation", "setting": "anesthetized dog; dose +10 mg/kg", "value": 0, "unit": "%"}, {"measurement": "Contraction force of the myocardium, percentage of variation", "setting": "anesthetized dog; dose +10 mg/kg", "value": "+26%"}, {"measurement": "Systolic arterial pressure, percentage of variation", "setting": "anesthetized dog; dose +10 mg/kg", "value": 0, "unit": "%"}, {"measurement": "Systolic volume, percentage of variation", "setting": "anesthetized dog; dose +10 mg/kg", "value": -23, "unit": "%"}, {"measurement": "(dp/dt)l/p, percentage of variation", "setting": "anesthetized dog; dose +20 mg/kg", "value": -21, "unit": "%"}, {"measurement": "Cardiac flow, percentage of variation", "setting": "anesthetized dog; dose +20 mg/kg", "value": -34, "unit": "%"}, {"measurement": "Cardiac frequency, percentage of variation", "setting": "anesthetized dog; dose +20 mg/kg", "value": 0, "unit": "%"}, {"measurement": "Contraction force of the myocardium, percentage of variation", "setting": "anesthetized dog; dose +20 mg/kg", "value": "+42%"}, {"measurement": "Systolic arterial pressure, percentage of variation", "setting": "anesthetized dog; dose +20 mg/kg", "value": 0, "unit": "%"}, {"measurement": "Systolic volume, percentage of variation", "setting": "anesthetized dog; dose +20 mg/kg", "value": -34, "unit": "%"}, {"measurement": "(dp/dt)l/p, percentage of variation", "setting": "anesthetized dog; dose +40 mg/kg", "value": -10, "unit": "%"}, {"measurement": "Cardiac flow, percentage of variation", "setting": "anesthetized dog; dose +40 mg/kg", "value": -11, "unit": "%"}, {"measurement": "Cardiac frequency, percentage of variation", "setting": "anesthetized dog; dose +40 mg/kg", "value": -18, "unit": "%"}, {"measurement": "Contraction force of the myocardium, percentage of variation", "setting": "anesthetized dog; dose +40 mg/kg", "value": "+52%"}, {"measurement": "Systolic arterial pressure, percentage of variation", "setting": "anesthetized dog; dose +40 mg/kg", "value": 0, "unit": "%"}, {"measurement": "Systolic volume, percentage of variation", "setting": "anesthetized dog; dose +40 mg/kg", "value": -8, "unit": "%"}, {"measurement": "Cardiac frequency (result in words)", "setting": "anesthetized dog", "value": "does not change"}, {"measurement": "Systolic arterial pressure (result in words)", "setting": "anesthetized dog", "value": "does not change"}, {"measurement": "force of ventricular myocardiac contractions (result in words)", "setting": "anesthetized dog", "value": "increases"}, {"measurement": "cumulative dose at which a 20% drop of cardiac flow is reached", "setting": "anesthetized dog", "value": "greater than 4 mg/kg"}, {"measurement": "LD50", "setting": "[4]", "value": 750, "unit": "mg/kg"}]}, {"smiles": "c1ccc(-c2cc(OCCN3CCCCC3)[nH]n2)cc1", "note": "[Example 9]", "values": [{"measurement": "local anesthesia", "setting": "rabbit cornea", "value": 100, "unit": "%"}, {"measurement": "change in vivo at 10 mg/kg", "setting": "[1]; [6]", "value": 0, "unit": "%"}, {"measurement": "change in vivo at 10 mg/kg", "setting": "[1]; [7]", "value": 38, "unit": "%"}, {"measurement": "change in vivo at 10 mg/kg", "setting": "[1]; [8]", "value": 28, "unit": "%"}, {"measurement": "inhibition at 10 µg/mL", "setting": "[2]", "value": 48, "unit": "%"}, {"measurement": "ED50", "setting": "[3]", "value": 44, "unit": "mg/kg"}, {"measurement": "Cardiac frequency (result in words)", "setting": "anesthetized dog", "value": "drops moderately"}, {"measurement": "Systolic arterial pressure (result in words)", "setting": "anesthetized dog", "value": "does not change"}, {"measurement": "force of ventricular myocardiac contractions (result in words)", "setting": "anesthetized dog", "value": "does not vary significantly"}, {"measurement": "cumulative dose at which a 20% drop of cardiac flow is reached", "setting": "anesthetized dog", "value": "greater than 4 mg/kg"}, {"measurement": "LD50", "setting": "[4]", "value": "400 to 800", "unit": "mg/kg"}]}, {"smiles": "Clc1ccc(-c2cc(OCCN3CCOCC3)[nH]n2)cc1", "note": "[Example 10]", "values": [{"measurement": "decrease of the number of ventricular extrasystoles per minute", "setting": "[5]", "value": "approximately 50%"}, {"measurement": "inhibition at 10 µg/mL", "setting": "[2]", "value": 15, "unit": "%"}, {"measurement": "LD50", "setting": "[4]", "value": 1000, "unit": "mg/kg"}]}]}
